Literature values in patent US20250221905A1, “HAIR CARE COMPOSITION” (Conopco, Inc., d/b/a UNILEVER, priority 2022, published 2025).

How the values were obtained:
5α-reductase = settings: background statement
[1] = supplier Croda

Compound: CCCCCCCC(=O)NCC(=O)O [Capryloyl glycine, N-(1-oxooctyl) glycine]
- sebum excess action modeled by 5α-reductase evaluation (5α-reductase): reduce sebum excess action

Compound: Oleth-20 [Brij O20]
- HLB value [1]: 15.5

Compound: Polysorbate 85 [Tween 85]
- HLB value [1]: 11

Compound: Steareth-2 [Brij S2]
- HLB value [1]: 4.9
